Assay results published in ChEMBL document CHEMBL5291721, “A preclinical secondary pharmacology resource illuminates target-adverse drug reaction associations of marketed drugs” (Nat Commun, 2023).

Tests used:
Adenosine receptor A3 [1] = biological target: T1, Adenosine receptor A3 (Homo sapiens, UniProt P0DMS8)
T1 sequence (P0DMS8 whole entry): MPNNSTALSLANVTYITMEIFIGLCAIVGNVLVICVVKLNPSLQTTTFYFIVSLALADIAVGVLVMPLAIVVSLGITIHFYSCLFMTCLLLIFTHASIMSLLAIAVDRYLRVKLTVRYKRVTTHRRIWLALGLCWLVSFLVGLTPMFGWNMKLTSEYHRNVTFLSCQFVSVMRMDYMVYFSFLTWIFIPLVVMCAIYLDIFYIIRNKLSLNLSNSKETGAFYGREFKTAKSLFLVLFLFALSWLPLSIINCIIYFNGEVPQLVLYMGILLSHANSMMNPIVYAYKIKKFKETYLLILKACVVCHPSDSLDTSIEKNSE

Adenosine receptor A3 [2] = biological target: T1, Adenosine receptor A3; remark: listed apart in the source
[3] = biological target: T2, Alpha-2A adrenergic receptor (Homo sapiens, UniProt P08913); type: functional, cell-based
T2 sequence (P08913 whole entry): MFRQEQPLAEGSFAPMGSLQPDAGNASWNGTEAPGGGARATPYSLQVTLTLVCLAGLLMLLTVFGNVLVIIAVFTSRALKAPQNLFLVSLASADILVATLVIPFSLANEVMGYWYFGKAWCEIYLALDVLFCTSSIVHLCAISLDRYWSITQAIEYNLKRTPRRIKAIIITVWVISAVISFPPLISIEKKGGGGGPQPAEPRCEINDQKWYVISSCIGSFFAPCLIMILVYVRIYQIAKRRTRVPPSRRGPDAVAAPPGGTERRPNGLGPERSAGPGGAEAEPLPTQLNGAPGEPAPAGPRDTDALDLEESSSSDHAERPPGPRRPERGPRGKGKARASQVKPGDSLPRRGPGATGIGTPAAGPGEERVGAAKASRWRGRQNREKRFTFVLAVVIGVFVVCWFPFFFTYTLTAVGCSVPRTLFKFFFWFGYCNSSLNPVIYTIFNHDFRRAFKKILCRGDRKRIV

[4] = biological target: T2, Alpha-2A adrenergic receptor; type: functional, cell-based; remark: listed apart in the source
[5] = biological target: T3, Muscarinic acetylcholine receptor M1 (Homo sapiens, UniProt P11229); type: functional, cell-based
T3 sequence (P11229 whole entry): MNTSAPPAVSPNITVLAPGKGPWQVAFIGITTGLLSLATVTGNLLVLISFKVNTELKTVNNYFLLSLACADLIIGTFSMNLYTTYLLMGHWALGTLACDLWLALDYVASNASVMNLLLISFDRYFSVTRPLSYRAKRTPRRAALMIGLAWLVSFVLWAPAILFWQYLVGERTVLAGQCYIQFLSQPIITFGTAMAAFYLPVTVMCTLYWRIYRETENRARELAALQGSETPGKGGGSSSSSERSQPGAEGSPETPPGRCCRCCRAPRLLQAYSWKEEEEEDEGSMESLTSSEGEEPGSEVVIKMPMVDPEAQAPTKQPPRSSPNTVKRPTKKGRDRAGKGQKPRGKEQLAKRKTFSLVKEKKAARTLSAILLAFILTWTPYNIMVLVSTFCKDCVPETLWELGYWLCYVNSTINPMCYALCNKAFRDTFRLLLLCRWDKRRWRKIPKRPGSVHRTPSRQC

Cannabinoid receptor 1 = Cannabinoid receptor 1 (Homo sapiens, UniProt P21554); type: functional, cell-based
Chain of Cannabinoid receptor 1 (P21554 whole entry): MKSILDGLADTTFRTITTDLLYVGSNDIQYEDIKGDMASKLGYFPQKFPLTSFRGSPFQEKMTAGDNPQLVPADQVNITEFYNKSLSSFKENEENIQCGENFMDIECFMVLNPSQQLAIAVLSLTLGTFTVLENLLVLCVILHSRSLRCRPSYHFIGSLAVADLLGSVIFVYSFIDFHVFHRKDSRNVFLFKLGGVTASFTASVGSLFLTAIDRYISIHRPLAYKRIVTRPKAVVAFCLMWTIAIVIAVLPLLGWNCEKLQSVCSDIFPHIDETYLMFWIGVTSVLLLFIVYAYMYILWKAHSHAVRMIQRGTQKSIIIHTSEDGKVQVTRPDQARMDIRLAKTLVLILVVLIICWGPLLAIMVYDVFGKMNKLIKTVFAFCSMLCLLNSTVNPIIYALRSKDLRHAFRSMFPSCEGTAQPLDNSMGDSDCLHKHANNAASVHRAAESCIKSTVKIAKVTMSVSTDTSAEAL

Estrogen receptor = biological target: T4, Estrogen receptor (Homo sapiens, UniProt P03372)
T4 sequence (P03372 whole entry): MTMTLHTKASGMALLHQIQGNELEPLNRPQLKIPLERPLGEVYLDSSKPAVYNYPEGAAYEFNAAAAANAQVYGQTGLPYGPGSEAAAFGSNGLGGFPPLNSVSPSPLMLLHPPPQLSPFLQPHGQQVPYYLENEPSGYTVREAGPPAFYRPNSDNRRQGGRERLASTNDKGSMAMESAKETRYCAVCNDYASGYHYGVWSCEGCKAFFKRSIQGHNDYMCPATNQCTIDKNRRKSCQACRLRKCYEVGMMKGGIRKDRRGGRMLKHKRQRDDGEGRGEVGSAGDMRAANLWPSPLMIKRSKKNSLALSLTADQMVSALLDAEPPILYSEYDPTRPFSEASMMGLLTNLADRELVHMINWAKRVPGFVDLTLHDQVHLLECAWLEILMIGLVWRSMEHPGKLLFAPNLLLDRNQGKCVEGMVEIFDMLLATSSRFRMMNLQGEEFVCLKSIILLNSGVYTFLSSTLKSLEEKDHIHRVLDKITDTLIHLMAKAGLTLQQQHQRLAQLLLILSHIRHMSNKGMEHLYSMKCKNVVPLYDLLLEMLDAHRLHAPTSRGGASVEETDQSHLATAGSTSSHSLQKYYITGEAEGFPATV

[6] = biological target: Vascular endothelial growth factor receptor 2 (Homo sapiens, UniProt P35968); type: functional
Chain of Vascular endothelial growth factor receptor 2 (P35968 whole entry): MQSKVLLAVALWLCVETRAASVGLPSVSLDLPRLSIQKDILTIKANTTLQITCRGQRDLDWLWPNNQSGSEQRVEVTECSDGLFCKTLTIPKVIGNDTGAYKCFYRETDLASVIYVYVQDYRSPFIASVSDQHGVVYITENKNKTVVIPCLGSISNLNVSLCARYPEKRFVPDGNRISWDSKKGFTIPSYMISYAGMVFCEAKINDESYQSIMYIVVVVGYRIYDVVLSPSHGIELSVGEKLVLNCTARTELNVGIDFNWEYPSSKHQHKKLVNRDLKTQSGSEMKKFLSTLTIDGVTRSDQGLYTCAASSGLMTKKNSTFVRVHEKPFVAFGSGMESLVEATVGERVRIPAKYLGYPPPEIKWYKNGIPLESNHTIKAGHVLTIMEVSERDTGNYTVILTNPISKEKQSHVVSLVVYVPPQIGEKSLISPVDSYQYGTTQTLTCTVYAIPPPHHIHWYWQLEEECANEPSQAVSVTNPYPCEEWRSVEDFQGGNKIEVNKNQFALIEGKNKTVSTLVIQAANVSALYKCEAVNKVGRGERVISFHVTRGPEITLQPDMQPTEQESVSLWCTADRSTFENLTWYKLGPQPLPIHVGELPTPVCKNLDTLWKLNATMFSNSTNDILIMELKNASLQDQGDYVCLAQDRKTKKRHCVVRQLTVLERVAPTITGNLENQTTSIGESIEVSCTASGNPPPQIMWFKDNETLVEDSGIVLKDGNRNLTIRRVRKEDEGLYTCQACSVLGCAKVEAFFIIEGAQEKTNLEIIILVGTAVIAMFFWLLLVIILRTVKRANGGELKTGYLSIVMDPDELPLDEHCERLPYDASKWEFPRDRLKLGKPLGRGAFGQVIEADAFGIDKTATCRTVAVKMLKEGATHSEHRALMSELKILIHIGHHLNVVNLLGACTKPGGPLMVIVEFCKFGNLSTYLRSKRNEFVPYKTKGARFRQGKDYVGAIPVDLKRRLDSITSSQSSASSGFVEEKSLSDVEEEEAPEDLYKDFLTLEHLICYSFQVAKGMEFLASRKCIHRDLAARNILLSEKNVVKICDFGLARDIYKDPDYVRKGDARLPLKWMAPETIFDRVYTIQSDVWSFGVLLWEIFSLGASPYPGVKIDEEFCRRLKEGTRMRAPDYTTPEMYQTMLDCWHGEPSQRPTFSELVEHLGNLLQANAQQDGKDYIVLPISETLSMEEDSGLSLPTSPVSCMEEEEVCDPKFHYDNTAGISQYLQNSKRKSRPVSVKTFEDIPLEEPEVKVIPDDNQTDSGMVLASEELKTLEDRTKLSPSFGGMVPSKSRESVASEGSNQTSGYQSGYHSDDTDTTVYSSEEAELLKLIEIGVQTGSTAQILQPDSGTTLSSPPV

[7] = biological target: T5, Equilibrative nucleoside transporter 1 (Homo sapiens, UniProt Q99808)
T5 sequence (Q99808 whole entry): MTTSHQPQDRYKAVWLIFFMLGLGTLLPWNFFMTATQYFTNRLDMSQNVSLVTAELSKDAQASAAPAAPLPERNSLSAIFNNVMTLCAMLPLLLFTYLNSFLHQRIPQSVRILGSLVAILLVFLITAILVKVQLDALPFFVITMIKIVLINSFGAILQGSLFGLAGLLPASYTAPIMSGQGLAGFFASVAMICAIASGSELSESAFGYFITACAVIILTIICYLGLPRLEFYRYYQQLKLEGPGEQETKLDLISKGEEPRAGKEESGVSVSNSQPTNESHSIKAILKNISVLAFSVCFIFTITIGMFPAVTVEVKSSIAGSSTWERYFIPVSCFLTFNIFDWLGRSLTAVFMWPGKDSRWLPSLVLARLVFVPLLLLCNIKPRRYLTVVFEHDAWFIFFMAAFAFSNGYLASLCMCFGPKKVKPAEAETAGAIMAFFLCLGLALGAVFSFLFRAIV

[8] = biological target: Sodium-dependent noradrenaline transporter (Homo sapiens, UniProt P23975)
Chain of Sodium-dependent noradrenaline transporter (P23975 whole entry): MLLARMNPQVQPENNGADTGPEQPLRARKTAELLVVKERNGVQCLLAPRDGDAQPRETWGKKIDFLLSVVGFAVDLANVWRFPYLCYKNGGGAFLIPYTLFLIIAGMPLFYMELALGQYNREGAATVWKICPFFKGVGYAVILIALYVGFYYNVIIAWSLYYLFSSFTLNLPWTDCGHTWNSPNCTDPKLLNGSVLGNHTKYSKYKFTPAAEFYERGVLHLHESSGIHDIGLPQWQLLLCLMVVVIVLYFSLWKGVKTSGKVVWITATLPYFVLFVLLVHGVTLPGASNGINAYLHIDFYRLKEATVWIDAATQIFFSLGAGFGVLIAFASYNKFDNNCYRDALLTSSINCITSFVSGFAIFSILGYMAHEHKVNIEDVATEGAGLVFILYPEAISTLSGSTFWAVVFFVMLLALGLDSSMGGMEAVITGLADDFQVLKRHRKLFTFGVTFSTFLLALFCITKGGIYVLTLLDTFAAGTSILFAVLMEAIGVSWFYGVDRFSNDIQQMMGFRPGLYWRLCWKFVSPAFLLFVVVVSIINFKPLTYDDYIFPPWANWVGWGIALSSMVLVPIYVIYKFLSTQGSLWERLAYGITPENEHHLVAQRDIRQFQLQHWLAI

Histamine H3 receptor = Histamine H3 receptor (Homo sapiens, UniProt Q9Y5N1)
Chain of Histamine H3 receptor (Q9Y5N1 whole entry): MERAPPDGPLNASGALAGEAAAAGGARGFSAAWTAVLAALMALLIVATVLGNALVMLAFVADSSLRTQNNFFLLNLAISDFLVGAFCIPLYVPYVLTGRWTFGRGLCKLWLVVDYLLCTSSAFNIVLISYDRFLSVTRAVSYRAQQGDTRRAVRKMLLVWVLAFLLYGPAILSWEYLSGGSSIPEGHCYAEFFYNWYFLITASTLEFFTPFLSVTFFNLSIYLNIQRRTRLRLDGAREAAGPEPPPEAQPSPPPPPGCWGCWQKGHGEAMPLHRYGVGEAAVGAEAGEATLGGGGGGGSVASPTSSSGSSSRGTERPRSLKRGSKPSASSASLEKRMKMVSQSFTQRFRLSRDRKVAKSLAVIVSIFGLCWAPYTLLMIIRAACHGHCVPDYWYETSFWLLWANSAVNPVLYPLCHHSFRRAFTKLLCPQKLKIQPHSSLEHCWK
Further: assay procedure not described here.

CCCc1nc2c(C)cc(-c3nc4ccccc4n3C)cc2n1Cc1ccc(-c2ccccc2C(=O)O)cc1
AC50 (Adenosine receptor A3 [1]): 18.3 µM | AC50 (Adenosine receptor A3 [2]): 17.4 µM | AC50 [3]: > 30 µM | AC50 [4]: 3.96 µM | AC50 [5]: 17.6 µM | AC50 (Cannabinoid receptor 1): > 10 µM | AC50 (Estrogen receptor): > 30 µM | AC50 [6]: > 10 µM | AC50 [7]: > 30 µM | AC50 [8]: > 30 µM | AC50 (Histamine H3 receptor): > 30 µM

CC[C@@H]1C[C@]1(NC(=O)[C@@H]1C[C@@H]2CN1C(=O)[C@H](C(C)(C)C)NC(=O)OCC(C)(C)CCCCc1cccc3c1CN(C3)C(=O)O2)C(=O)NS(=O)(=O)C1CC1
AC50 (Adenosine receptor A3 [2]): 12.6 µM | AC50 [5]: 23.4 µM | AC50 (Estrogen receptor): > 30 µM | AC50 [6]: 16.3 µM

CC(=O)NCCCCCC(=O)O [ACEXAMIC ACID]
AC50 (Adenosine receptor A3 [2]): > 30 µM | AC50 [5]: > 30 µM | AC50 (Estrogen receptor): > 30 µM | AC50 [6]: > 30 µM

C=C(C)CNc1ccc(C(C)C(=O)O)cc1 (centres undefined) [ALMINOPROFEN]
AC50 (Adenosine receptor A3 [2]): > 30 µM | AC50 [5]: > 30 µM | AC50 (Estrogen receptor): > 30 µM | AC50 [6]: > 30 µM

C[C@H]1CN(C[C@H](Cc2ccccc2)C(=O)NCC(=O)O)CC[C@@]1(C)c1cccc(O)c1 [ALVIMOPAN]
AC50 (Adenosine receptor A3 [2]): > 30 µM | AC50 [5]: > 30 µM | AC50 (Estrogen receptor): > 30 µM | AC50 [6]: > 30 µM

C[C@H]1O[C@@H](O[C@H]2CC[C@@]3(C)[C@H](CC[C@@H]4[C@@H]3C[C@@H](O)[C@]3(C)[C@@H](C5=CC(=O)OC5)CC[C@]43O)C2)C[C@H](O)[C@@H]1O[C@H]1C[C@H](O)[C@H](O[C@H]2C[C@H](O)[C@H](O[C@@H]3O[C@H](CO)[C@@H](O)[C@H](O)[C@H]3O)[C@@H](C)O2)[C@@H](C)O1 [DESLANOSIDE]
AC50 (Adenosine receptor A3 [2]): > 30 µM | AC50 [5]: > 30 µM | AC50 (Estrogen receptor): > 30 µM | AC50 [6]: > 30 µM

O=C(O)Cc1ccccc1Oc1ccc(Cl)cc1Cl [FENCLOFENAC]
AC50 (Adenosine receptor A3 [1]): > 30 µM | AC50 (Adenosine receptor A3 [2]): > 30 µM | AC50 [3]: > 10 µM | AC50 [4]: > 10 µM | AC50 [5]: > 30 µM | AC50 (Cannabinoid receptor 1): > 30 µM | AC50 (Estrogen receptor): > 30 µM | AC50 [6]: > 30 µM | AC50 [7]: > 30 µM | AC50 [8]: > 10 µM | AC50 (Histamine H3 receptor): > 10 µM

C[N+](C)(CCCCCC[N+](C)(C)C1c2ccccc2-c2ccccc21)C1c2ccccc2-c2ccccc21 [HEXAFLUORENIUM]
AC50 (Adenosine receptor A3 [2]): > 30 µM | AC50 [5]: > 30 µM | AC50 (Estrogen receptor): > 30 µM | AC50 [6]: > 30 µM

CCCCC(CC)CN1CN(CC(CC)CCCC)CC(C)(N)C1 (centres undefined) [HEXETIDINE]
AC50 (Adenosine receptor A3 [2]): 10.8 µM | AC50 [5]: > 30 µM | AC50 (Estrogen receptor): > 30 µM | AC50 [6]: > 30 µM

Cc1cc(=O)oc2cc(O)ccc12 [HYMECROMONE]
AC50 (Adenosine receptor A3 [2]): > 30 µM | AC50 [5]: > 30 µM | AC50 (Estrogen receptor): > 30 µM | AC50 [6]: 25.4 µM

C[N+]1(C)CCCC(OC(=O)C(O)(c2ccccc2)c2ccccc2)C1 (centres undefined) [MEPENZOLATE]
AC50 (Adenosine receptor A3 [2]): > 30 µM | AC50 [5]: > 30 µM | AC50 (Estrogen receptor): > 30 µM | AC50 [6]: > 30 µM

O=C(NNCS(=O)(=O)O)c1ccncc1 [METHANIAZIDE]
AC50 (Adenosine receptor A3 [2]): > 30 µM | AC50 [5]: > 30 µM | AC50 (Estrogen receptor): > 30 µM | AC50 [6]: > 30 µM

Cc1cc(=O)[nH]c(=S)[nH]1 [METHYLTHIOURACIL]
AC50 (Adenosine receptor A3 [2]): > 30 µM | AC50 [5]: > 30 µM | AC50 (Estrogen receptor): > 30 µM | AC50 [6]: > 30 µM

CN(C)c1ccc(O)c2c1C[C@H]1C[C@H]3[C@H](N(C)C)C(O)=C(C(N)=O)C(=O)[C@@]3(O)C(O)=C1C2=O [MINOCYCLINE]
AC50 (Adenosine receptor A3 [2]): > 30 µM | AC50 [5]: > 30 µM | AC50 (Estrogen receptor): > 30 µM | AC50 [6]: > 30 µM

CCNC(=O)/C=C(C)/C=C/C=C(C)/C=C/c1c(C)cc(OC)c(C)c1C [MOTRETINIDE]
AC50 (Adenosine receptor A3 [2]): 2.24 µM | AC50 [5]: > 30 µM | AC50 (Estrogen receptor): 16.4 µM | AC50 [6]: > 30 µM

C=CC(=O)Nc1cccc(Oc2nc(Nc3ccc(N4CCN(C)CC4)cc3)nc3ccsc23)c1 [OLMUTINIB]
AC50 (Adenosine receptor A3 [2]): 0.003 µM | AC50 [5]: > 30 µM | AC50 (Estrogen receptor): 28.6 µM | AC50 [6]: 2.06 µM

Nc1cccc2c1C(=O)N(C1CCC(=O)NC1=O)C2=O (centres undefined) [POMALIDOMIDE]
AC50 (Adenosine receptor A3 [2]): > 30 µM | AC50 [5]: > 30 µM | AC50 (Estrogen receptor): > 30 µM | AC50 [6]: > 30 µM

C[Se]CC[C@H](N)C(=O)O [SELENOMETHIONINE]
AC50 (Adenosine receptor A3 [2]): > 30 µM | AC50 [5]: > 30 µM | AC50 (Estrogen receptor): > 30 µM | AC50 [6]: > 30 µM

Cc1ccsc1C(=CCCN1CCC[C@@H](C(=O)O)C1)c1sccc1C [TIAGABINE]
AC50 (Adenosine receptor A3 [2]): > 30 µM | AC50 [5]: > 30 µM | AC50 (Estrogen receptor): > 30 µM | AC50 [6]: > 30 µM

O=C1Cc2cc(CCN3CCN(c4nsc5ccccc45)CC3)c(Cl)cc2N1 [ZIPRASIDONE]
AC50 (Adenosine receptor A3 [1]): > 30 µM | AC50 (Adenosine receptor A3 [2]): 8.66 µM | AC50 [5]: > 30 µM | AC50 (Cannabinoid receptor 1): > 30 µM | AC50 (Estrogen receptor): > 30 µM | AC50 [6]: 11.2 µM | AC50 [7]: > 30 µM | AC50 [8]: 0.89 µM | AC50 (Histamine H3 receptor): > 30 µM
